The test system of one data set is Mice (CD-1). The experiment in a line: Tremorgen assay, mouse model. Type of data set: in vivo. Particulars: CD-1 mice; for Tremors: intraperitoneal. As for the experimental part:
Tremorgen Assay A mouse model was developed to evaluate the tremorgen potential of the instance compounds. Mice (CD-1) were injected intraperitoneally at 5 mg/Kg with each compound and observed by investigators for 1 hour for any signs of tremors as well as other behaviors not seen in control mice.
A known tremorgen, Aflatrem, consistently produces tremors in injected mice within 15 minutes at 1 and 5 mg/Kg.

For data set [1], the target named is T1, high-conductance calcium-activated potassium (maxi-K) channels (Homo sapiens, UniProt Q12791).
T1 construct: expressed in transfected cells; host or cells: CHO cells (α-subunit alone) and HEK293 cells (α- and β-subunits)
T1 sequence (Q12791 whole entry): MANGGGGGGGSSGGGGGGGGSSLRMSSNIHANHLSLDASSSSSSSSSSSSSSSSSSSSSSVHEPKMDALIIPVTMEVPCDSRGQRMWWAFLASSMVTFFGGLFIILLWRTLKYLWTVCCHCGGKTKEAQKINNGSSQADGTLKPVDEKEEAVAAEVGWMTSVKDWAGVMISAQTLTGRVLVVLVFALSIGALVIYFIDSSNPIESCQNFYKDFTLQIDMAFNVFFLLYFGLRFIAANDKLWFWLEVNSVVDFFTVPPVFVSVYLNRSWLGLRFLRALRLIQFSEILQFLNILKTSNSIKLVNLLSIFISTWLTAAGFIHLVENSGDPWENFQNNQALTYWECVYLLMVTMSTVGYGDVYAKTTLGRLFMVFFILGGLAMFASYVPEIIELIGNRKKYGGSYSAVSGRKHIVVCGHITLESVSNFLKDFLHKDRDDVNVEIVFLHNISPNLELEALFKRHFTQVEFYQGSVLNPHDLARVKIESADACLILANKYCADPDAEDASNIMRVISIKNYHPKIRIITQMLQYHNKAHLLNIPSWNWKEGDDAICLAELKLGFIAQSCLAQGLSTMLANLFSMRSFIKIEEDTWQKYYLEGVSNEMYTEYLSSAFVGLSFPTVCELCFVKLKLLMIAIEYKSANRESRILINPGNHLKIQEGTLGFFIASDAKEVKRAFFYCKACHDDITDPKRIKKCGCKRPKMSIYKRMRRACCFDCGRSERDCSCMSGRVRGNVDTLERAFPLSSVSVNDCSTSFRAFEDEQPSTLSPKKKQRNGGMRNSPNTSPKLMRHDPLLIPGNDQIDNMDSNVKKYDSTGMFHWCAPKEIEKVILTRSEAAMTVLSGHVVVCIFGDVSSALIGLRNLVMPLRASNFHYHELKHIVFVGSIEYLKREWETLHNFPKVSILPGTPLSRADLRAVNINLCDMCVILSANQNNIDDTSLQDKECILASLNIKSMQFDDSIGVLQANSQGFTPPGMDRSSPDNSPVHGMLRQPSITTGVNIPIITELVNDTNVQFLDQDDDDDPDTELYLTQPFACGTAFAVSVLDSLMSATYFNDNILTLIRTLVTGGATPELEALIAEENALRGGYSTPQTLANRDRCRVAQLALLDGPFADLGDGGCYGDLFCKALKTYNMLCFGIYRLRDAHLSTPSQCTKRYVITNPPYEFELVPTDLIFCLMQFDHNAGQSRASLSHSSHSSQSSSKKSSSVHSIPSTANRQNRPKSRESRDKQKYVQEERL
Nature of the data set: Patch clamp recordings of maxi-K channel currents in excised inside-out membrane patches. Type of data set: biochemical. Particulars: from reduction in peak current, 10 nM compound on internal side of membrane patch, held at -80 mV, steps typically to +50 mV. The source says: Patch clamp recordings of currents flowing through high-conductance calcium-activated potassium (maxi-K) channels were made from membrane patches excised from CHO cells constitutively expressing the α-subunit of the maxi-K channel and from HEK293 cells constitutively expressing both α- and β-subunits using conventional techniques (Hamill et al., 1981, Pflügers Archiv. 391, 85-100) at room temperature. Glass capillary tubing (Garner #7052) was pulled in two stages to yield micropipettes with tip diameters of approximately 1-2 microns. Pipettes were typically filled with solutions containing (mM): 150 KCl, 10 Hepes (4-(2-hydroxyethyl)-1-piperazine […]), 1 MgCl2, 0.01 CaCl2, and adjusted to pH 7.20 with 3.7 mM KOH. After forming a high resistance ([…]) seal between the plasma membrane and the pipette, the pipette was withdrawn from the cell, forming an excised inside-out membrane patch. The patch was excised into a bath solution containing (mM): 150 KCl, 10 Hepes, 5 EGTA (ethylene glycol bis(β-aminoethyl ether)-N,N,N′,N′-tetraacetic acid), sufficient Ca to yield a free Ca concentration of 1-5 μM, and the pH was adjusted to 7.2 with KOH. For example, 4.193 mM Ca was added to give a free concentration of 1 μM at 22° C. An EPC9 amplifier (HEKA Elektronic, Lambrect, Germany) was used to control the voltage and to measure the currents flowing across the membrane patch. The input to the headstage was connected to the pipette solution with a Ag/AgCl wire, and the amplifier ground was connected to the bath solution with a Ag/AgCl wire covered with a tube filled with agar dissolved in 0.2 M KCl. […]
The effects of the compounds of the present invention on maxi-K channels was examined in excised inside-out membrane patches. […] The fraction of channels blocked in each experiment was calculated from the reduction in peak current caused by application of 10 nM of specified compound to the internal side of the membrane patch. […]
On the technique in general: In patch-clamp work, channel activity is measured electrically.

Regarding `CC1(C)OC1Cc1cccc2[nH]c3c(c12)C[C@@H]1CC[C@@]2(O)C45OC4C4OC(C6OC6(C)C)OC(C)(C)C4OC5=CC[C@]2(C)[C@@]31C` (some centres unmarked) [Compound I], in the data set with Mice (CD-1) (5 mg/Kg, observed for 1 hour), the Tremors result was “None”. Besides, in data set [1], the “FRACTION BLOCKED (10 nM)” value is listed as 0.9.

On to `CC(C)=CC1OC2C(OC3=CC[C@]4(C)[C@@]5(C)c6[nH]c7ccccc7c6C[C@@H]5CC[C@@]4(O)C34OC24)C(C)(C)O1` (some centres unmarked) [Compound II], for which the Tremors result in the data set on Mice (CD-1) (5 mg/Kg, observed for 1 hour) was “None”. Further, the “FRACTION BLOCKED (10 nM)” value in data set [1] was 0.99-1.

As to `CC(C)=CCc1cccc2[nH]c3c(c12)C[C@@H]1CC[C@@]2(O)C45OC4C4OC(C6OC6(C)C)OC(C)(C)C4OC5=CC[C@]2(C)[C@@]31C` (some centres unmarked) [Compound III], the Tremors result in the data set with Mice (CD-1) (5 mg/Kg, observed for 1 hour) is reported as “None”. The “FRACTION BLOCKED (10 nM)” value in data set [1] is 0.99-1.

For the compound Aflatrem [reference compound], in the data set on Mice (CD-1) (1 and 5 mg/Kg), the “time to tremors after injection” value is no more than 15 min and the Tremors entry is “Tremors”.

These data come from patent publication US20050124595A1, “Compositions and methods for treating glaucoma and ocular hypertension” (priority 2002, published 2005).
